# Laboratory results reported in article PMC11997985, “Synthesis and In Vitro Profiling of Psilocin Derivatives: Improved Stability and Synthetic Properties” (Journal of Medicinal Chemistry, 2025).
# Several values for one entry are separate records, joined by “and”; a condition that tells them apart may be missing. Equal entries are not always repeated. Entries after “also recorded” stand apart in the source; their conditions may differ. Marks after values point to notes of the source that are not given here.
# Experiments:
# [1] = Forced degradation of psilocin salts, acid (1.0 M HCl); details: for half-life at 2 mg/mL freebase psilocin: 1.0 M HCl (acid forced degradation); for % psilocin remaining: after 24 h compared with first measuring point at 1 h, LCMS; for color: visual inspection after 24 h
# [2] = General observations of psilocin salts in solid form in −18 °C freezer; details: for stability (solid form): over 3 weeks in −18 °C freezer, visual inspection and LCMS; for hygroscopic: visual inspection
# [3] = Forced degradation of psilocin salts, oxidative (0.30% H2O2)
# [4] = Photolytic degradation of psilocin salts; details: for % psilocin remaining: after 14 days
# [5] = Forced degradation of psilocin salts, base (0.10 M NaOH); details: for half-life at 24 h, 2 mg/mL freebase psilocin: 0.10 M NaOH (base forced degradation)
# [6] = Thermal degradation of psilocin salts at 60 °C; details: for % psilocin remaining: after 6 days (143 h)
# [7] = Peak area in microsome suspension compared with compounds in solution; format: in vitro ADME, human; details: peak area 15 seconds after addition of NADPH versus same amount (125 nM) in H2O/EtOH
# Protocol: (§1) were taken at three timepoints, and the degradation was compared to determine if it was dependent on NADPH. Compound 4k […]
# (§2) without the addition of NADPH. […]
# (§3) microsomes that need to be activated by a co -factor.
# (§4) Table S5 Percent of peak area found in microsome suspension 15 seconds after the addition of NADPH in comparison with the same amount dissolved in H2O/EtOH
# (§5) No. Area at 0.25 min. in Area in solution % found in microsomes/NADPH (125 nM) microsome
# (§6) Comparison with compounds in solution. A comparison was made between the peak area of the compounds in solution with that obtained in the microsome suspension directly after the addition of NADPH (about 0.25 minutes) (Table S5). Before the addition of NADPH, the compounds are equilibrated in the microsome suspension for approximately five minutes. All compounds were prepared in solution by diluting a portion of the DMSO solutions with H2O/EtOH (75:25) to 125 nM (the final concentration of compounds for analysis in the microsome assay).
# (§7) For the compounds where no results from the microsome assay could be reported due to low peak area (4d, 4e, 4f & 5), less than one percent of the expected peak area as compared with the area in solution was detected. […]
# (§8) degrade rapidly before the addition of the co-factor after five minutes in incubation. For compounds 4g, 4h, 4i & 4j, which were […]
# (§9) higher relative peak areas were found. […]
# (§10) without NADPH was only found at 15% of the area seen in solution in the microsome suspension.
# [8] = Chemical stability in 1.0 M NaHCO3 and 1.0 M HCl
# [9] = Stability in simulated stomach acid (0.10 M HCl); details: 0.10 M HCl (simulated stomach acid)
# [10] = Solubility, screen method, phosphate buffer pH 7.4, 1% DMSO; format: physicochemical; details: phosphate buffer with 1% DMSO; 100 mM phosphate buffer pH 7.4, 1% DMSO; assay range 0.1 to 100 μM
# [11] = Metabolic stability in human microsomes; format: in vitro ADME; details: for Metabolic stability in human microsomes: 37 °C, 0.5 mg/mL protein, 1 μM compound, 1 mM NADPH; for Comment on microsome assay: Table S3
# [12] = Co-factor experiment: microsome suspension with and without NADPH; format: in vitro ADME, human; details: for Co-factor experiment: degradation with and without addition of NADPH compared
# Protocol: Therefore, additional experiments comparing stability with and without the addition of NADPH cofactor and a very short incubation period were performed (Tables S4 and S5). […] Due to the rapid observed degradation in microsomes, we decided to investigate the stability of five compounds in human plasma, aiming for a broad range of stabilities (Table 2, Table S6). It should be noted that esterase-labile compounds are notoriously difficult to study in microsomal stability studies.[36]
# Table S3 Evaluation of metabolic stability in human microsomes
# No. Metabolic stability Comment
# 4k <10/<10 Low retention in chromatography
# 8 <10/<10 Low retention in chromatography.
# Table S4 Results from the modified microsome assay where degradation with and without the addition of NADPH was compared […]
# 4d Very low peak area for the first time point,
# 4e Very low peak area for the first time point,
# 4f Very low peak area for the first time point,
# 5 Very low peak area for the first time point,
# 8 No degradation without co -factor […]
# metabolism by the microsomes (consisting mainly of cytochrome P450 enzymes) or if it was due to other factors, the compounds (with the exception of 4k) were incubated in the microsome suspension both with and without the addition of NADPH. Samples […]
# as §1, §2, §3, §4, §5, §6, §7, §8, §9, §10
# [13] = tested on: porcine liver esterase; experiment: Stability in FaSSIF supplemented with esterase; details: for % prodrug remaining, measured after 1 min: after 1 min at 20 IU/mL; for predicted half-life: at 270 IU/mL; for predicted abs.: calculated remaining prodrug available for GI absorption, predicted level after 5 min at 270 IU/mL (% remaining prodrug); for half-life at 0.292 mM: pig, FaSSIF supplemented with porcine liver esterase (20 IU/mL)
# [14] = 0.30% H2O2 (oxidative forced degradation), half-life, 0.30% H2O2, RT
# [15] = 0.30% H2O2 (oxidative forced degradation), half-life, 0.30% H2O2
SMILES,half-life at 2 mg/mL freebase psilocin [1] [h],% psilocin remaining ([1]; 1.0 M HCl) [%],"color ([1]; 1.0 M HCl, RT)",stability (solid form) [2],hygroscopic [2],"% psilocin remaining ([3]; 0.30% H2O2, after 24 h) [%]","half-life at 336 h, 2 mg/mL freebase psilocin [4] [h]",% psilocin remaining ([4]; 12900 lx) [%],"half-life at 24 h, 2 mg/mL freebase psilocin [5] [h]","% psilocin remaining ([5]; 0.10 M NaOH, after 24 h) [%]",% psilocin remaining [6] [%],half-life at 5 mM [9] [h],Metabolic stability in human microsomes [11],"half-life at 24 h, 5 mM ([8]; 1.0 M NaHCO3) [h]",Co-factor experiment [12],Comment on microsome assay [11],further results
CN(C)CCc1c[nH]c2cccc(O)c12.O=C(O)c1ccccc1 [Compound 9c],> 167,100,clear,stable enough to store as a solid in the freezer for an extended period; also recorded: no change,no,94,150,0,8.33,0,0,–,–,–,–,–,"half-life at 2 mg/mL freebase psilocin [3, 14]: > 167 h; time to complete breakdown ([4]; 12900 lx, RT): ≤ 1 week; half-life at 2 mg/mL freebase psilocin [6]: < 48 h; half-life at 144 h, 2 mg/mL freebase psilocin [6]: 33.3 h"
CN(C)CCc1c[nH]c2cccc(O)c12.Cl [Compound 9a],> 167,100,clear,degrading during storage after only 3 days; also recorded: not very stable,highly hygroscopic and yes,100,333,51,8.33,0,0,–,–,–,–,–,"half-life at 2 mg/mL freebase psilocin [3, 14]: > 167 h; half-life at 2 mg/mL freebase psilocin [6]: < 48 h; half-life at 144 h, 2 mg/mL freebase psilocin [6]: 50 h"
CN(C)CCc1c[nH]c2cccc(OC(=O)N3CCCCC3)c12.O=C(O)/C=C/C(=O)O [Compound 4k],–,–,–,–,–,–,–,–,–,–,–,> 167,<10/<10^b μL/min/mg protein and <10 μL/min/mg protein,–,–,–,% found in microsome suspension [7]: 79%; half-life at 5 mM ([8]; 1.0 M HCl): > 167 h; half-life at 5 mM ([8]; 1.0 M NaHCO3): > 167 h; solubility [10]: > 90 µM
CN(C)CCc1c[nH]c2cccc(O)c12.O=C(O)C(F)(F)F [Compound 9f],> 167,99,clear,degrades within 3 days,highly hygroscopic and yes,78,167,22,15,0,0,–,–,–,–,–,"half-life at 2 mg/mL freebase psilocin [3, 15]: > 24 h; half-life at 2 mg/mL freebase psilocin [3, 14]: 33.3 h; half-life at 2 mg/mL freebase psilocin [6]: < 48 h"
CCCCCCCCCCC(=O)Oc1cccc2[nH]cc(CCN(C)C)c12.O=C(O)/C=C/C(=O)O [Compound 4j],–,–,–,–,–,–,–,–,–,–,–,> 167,>200^a μL/min/mg protein and >200 μL/min/mg protein,16.7,Degradation without co-factor,Rapid degradation,"% found in microsome suspension [7]: 45%; half-life at 24 h, 5 mM ([8]; 1.0 M HCl): 21.7 h; microsomal CLint ([12]; human, human microsome suspension, both with and without the addition of NADPH, read-out: intrinsic clearance): > 200 µL/min/mg"
CN(C)CCc1c[nH]c2cccc(O)c12.OB(O)O [Compound 9b],–,93,clear,stable enough to store as a solid in the freezer for an extended period; also recorded: no change,no,0,–,0,–,0,0,–,–,–,–,–,"half-life ([1]; 1.0 M HCl, RT): >10,000 min; time to complete degradation ([3]; 0.30% H2O2): ≤ 3 h; half-life ([3]; 0.30% H2O2, RT): <1 h; color ([3]; 0.30% H2O2, after 24 h, RT): brown; half-life ([4]; 12900 lx, RT): <1000 ^b min; time to complete breakdown ([4]; 12900 lx, RT): ≤ 1 week; color (24 h) ([4]; 12900 lx, RT, water:acetonitrile 1:1): black; control sample stored in darkness ([4]; in air at RT for a week, dissolved salt): entirely degraded; half-life ([5]; 0.10 M NaOH, RT): 6.67 h; color ([5]; 0.10 M NaOH, after 24 h, RT): black; half-life [6]: <11.7 h; time to complete degradation [6]: ≤ 24 h; color (24 h) ([6]; water:acetonitrile 1:1): black"
COC(=O)Oc1cccc2[nH]cc(CCN(C)C)c12.O=C(O)/C=C/C(=O)O [Compound 4e],–,–,–,–,–,–,–,–,–,–,–,> 167,>200^a μL/min/mg protein and >200 μL/min/mg protein,16.7,"Very low peak area for the first time point, instability suspected",Rapid degradation,"% prodrug remaining, measured after 1 min [13]: 60%; % prodrug remaining, no esterase 30 min ([13]; after 30 min with no esterase): 100%; predicted half-life [13]: 6 s; predicted abs. [13]: 4.1 × 10^–13; half-life at 0.292 mM [13]: 84.6 ± 19.2 s; half-life at 24 h, 5 mM ([8]; 1.0 M HCl): 150 h"
CN(C)CCc1c[nH]c2cccc(OC(=O)OCc3ccccc3)c12.O=C(O)/C=C/C(=O)O.O=CO [Compound 4f],–,–,–,–,–,–,–,–,–,–,–,> 167,>200^a μL/min/mg protein and >200 μL/min/mg protein,11.7,"Very low peak area for the first time point, instability suspected",Rapid degradation,"% prodrug remaining, measured after 1 min [13]: 21%; predicted half-life [13]: 1.8 s; predicted abs. [13]: 6.6 × 10^–45; half-life at 0.292 mM [13]: 26.4 ± 2.4 s; half-life at 24 h, 5 mM ([8]; 1.0 M HCl): 100 h"
CN(C)CCc1c[nH]c2cccc(O)c12.O=P(O)(O)O [Compound 9e],> 167,94,clear,darkens after 1 week,no,83,333,33,5,0,0,–,–,–,–,–,"half-life at 2 mg/mL freebase psilocin [3, 15]: > 24 h; half-life at 24 h, 2 mg/mL freebase psilocin [3, 14]: 13.3 h; half-life at 144 h, 2 mg/mL freebase psilocin [6]: 66.7 h"
CC(C)COC(=O)Oc1cccc2[nH]cc(CCN(C)C)c12.O=CO [Compound 4d],–,–,–,–,–,–,–,–,–,–,–,> 167,>200^a μL/min/mg protein and >200 μL/min/mg protein,36.7,"Very low peak area for the first time point, instability suspected",Rapid degradation,"degradation rate among prodrugs ([13]; FaSSIF, 20 IU/mL esterase): fastest degradation; % prodrug remaining, measured after 1 min [13]: 7%; predicted half-life [13]: 1.2 s; predicted abs. [13]: 7.0 × 10^–77; half-life at 0.292 mM [13]: 15.6 ± 1.2 s; half-life at 5 mM ([8]; 1.0 M HCl): > 167 h; solubility [10]: > 90 µM"
CN(C)CCc1c[nH]c2cccc(OB(O)O)c12.O=C(O)/C=C/C(=O)O [Compound 5],–,–,–,–,–,–,–,–,–,–,–,< 0.0833,>200^a μL/min/mg protein and >200 μL/min/mg protein,–,"Very low peak area for the first time point, instability suspected",Rapid degradation,half-life at 5 mM ([8]; 1.0 M HCl): < 0.0833 h; half-life at 5 mM ([8]; 1.0 M NaHCO3): < 0.0833 h
